Test results taken from patent US3951746A, “Antibiotics and process for their manufacture” (Schering Corporation, priority 1975, dated 1976).
Structures can show the parent of a compound that is named as a salt. Where two headings read alike, the source gives them in different places.

What was measured:
[1] = system: Staphylococcus aureus ATCC 6538P; assay: disc plate assay (microbiological assay); format: cell-based
Streptococcus pyogenes C [2] = assay: MIC in vitro (Table VIII); conditions: for MIC: pH 7.4, read-out: Minimum Inhibitory Concentration - MIC
Streptococcus pyogenes 6 = assay: MIC in vitro (Table VIII); conditions: for MIC: pH 7.4, read-out: Minimum Inhibitory Concentration - MIC
Aerobacter aerogenes 3 = assay: MIC in vitro (Table VIII)
Aerobacter aerogenes 4 = assay: MIC in vitro (Table VIII); conditions: for MIC: pH 7.4, read-out: Minimum Inhibitory Concentration - MIC
Escherichia coli Sc = assay: MIC in vitro (Table VIII); conditions: for MIC: pH 7.4, read-out: Minimum Inhibitory Concentration - MIC
Escherichia coli 5 = assay: MIC in vitro (Table VIII); conditions: for MIC: pH 7.4, read-out: Minimum Inhibitory Concentration - MIC
Escherichia coli 19 = assay: MIC in vitro (Table VIII); conditions: for MIC: pH 7.4, read-out: Minimum Inhibitory Concentration - MIC
[3] = system: Klebsiella pneumoniae Ad KR; assay: MIC in vitro (Table VIII); conditions: for MIC: pH 7.4, read-out: Minimum Inhibitory Concentration - MIC
[4] = system: Klebsiella pneumoniae 17 KR; assay: MIC in vitro (Table VIII); conditions: for MIC: pH 7.4, read-out: Minimum Inhibitory Concentration - MIC
Proteus mirabilis MeF = assay: MIC in vitro (Table VIII); conditions: for MIC: pH 7.4, read-out: Minimum Inhibitory Concentration - MIC
Proteus vulgaris 2 = assay: MIC in vitro (Table VIII); conditions: for MIC: pH 7.4, read-out: Minimum Inhibitory Concentration - MIC
[5] = system: Pseudomonas aeruginosa 8689; assay: MIC in vitro (Table VIII); conditions: for MIC: pH 7.4, read-out: Minimum Inhibitory Concentration - MIC
[6] = system: Pseudomonas aeruginosa Miller; assay: MIC in vitro (Table VIII); conditions: for MIC: pH 7.4, read-out: Minimum Inhibitory Concentration - MIC
Salmonella paratyphi B1 = assay: MIC in vitro (Table VIII); conditions: for MIC: pH 7.4, read-out: Minimum Inhibitory Concentration - MIC
Salmonella paratyphi B2 = assay: MIC in vitro (Table VIII); conditions: for MIC: pH 7.4, read-out: Minimum Inhibitory Concentration - MIC
Candida albicans 406 = assay: MIC in vitro (Table VIII); conditions: for MIC: pH 7.4, read-out: Minimum Inhibitory Concentration - MIC
Candida albicans 401 = assay: MIC in vitro (Table VIII); conditions: for MIC: pH 7.4, read-out: Minimum Inhibitory Concentration - MIC
Candida albicans 411 = assay: MIC in vitro (Table VIII); conditions: for MIC: pH 7.4, read-out: Minimum Inhibitory Concentration - MIC
Saccharomyces cerevisiae = assay: MIC in vitro (Table VIII); conditions: for MIC: Saccharomyces cerevisiae, pH 7.4, read-out: Minimum Inhibitory Concentration - MIC
[7] = system: gram positive and gram-negative bacteria; format: cell-based
[8] = system: kanamycin resistant bacteria; format: cell-based
bacteria = format: cell-based
yeast = format: cell-based
[9] = system: gram-positive and gram-negative organisms; set-up: species or system mice; conditions: mouse
[10] = system: Staphylococcus aureus Gray; set-up: species or system mice; conditions: mouse, in vivo, sc
Streptococcus pyogenes C [11] = system: Streptococcus pyogenes C; set-up: species or system mice; conditions: mouse, in vivo, sc
Escherichia coli 10536 = system: Escherichia coli 10536; set-up: species or system mice; conditions: mouse, in vivo, sc
[12] = system: Pseudomonas aeruginosa 8689; set-up: species or system mice; conditions: mouse, in vivo, sc
[13] = system: Staphylococcus aureus 209P; assay: MIC in vitro (Table VIII); conditions: 24 hours; yeast beef broth (pH 7.4)
[14] = 24 hours, yeast beef broth (pH 7.4)
[15] = 24 hours, yeast beef broth (pH 7.4), kanamycin-resistant

In the case of `CN[C@@H]1[C@@H](O)[C@@H](O[C@@H]2[C@@H](O)[C@H](O[C@H]3OC(C(C)N)=CC[C@H]3N)[C@@H](N)C[C@H]2N)OC[C@]1(C)O` (stereo partly shown) [Verdamicin I Sulfate], the “assay potency in the gentamicin assay” value ([1]; gentamicin assay) is reported as 674 µg/mg, the MIC (Streptococcus pyogenes C [2]; 24 h) is reported as 0.75 µg/mL and the MIC (Streptococcus pyogenes C [2]; 48 h) is reported as 3 µg/mL. It also gave an MIC (Streptococcus pyogenes 6; 24 h) of 0.3 µg/mL, an MIC (Streptococcus pyogenes 6; 48 h) of 0.75 µg/mL and an MIC (Aerobacter aerogenes 3; 24 h, pH 7.4, read-out: Minimum Inhibitory Concentration - MIC) of 0.3 µg/mL. The MIC (Aerobacter aerogenes 4; 24 h) was 0.3 µg/mL, the MIC (Aerobacter aerogenes 4; 48 h) was 0.3 µg/mL and the MIC (Escherichia coli Sc; 24 h) was 0.3 µg/mL. It also gave an MIC (Escherichia coli Sc; 48 h) of 0.75 µg/mL, an MIC (Escherichia coli 5; 24 h) of 0.3 µg/mL and an MIC (Escherichia coli 5; 48 h) of 0.75 µg/mL. The MIC (Escherichia coli 19; 24 h) was 0.3 µg/mL, the MIC (Escherichia coli 19; 48 h) was 0.3 µg/mL and the MIC ([3]; 24 h) was 0.3 µg/mL. The MIC ([3]; 48 h) was 0.3 µg/mL, the MIC ([4]; 24 h) was 0.3 µg/mL and the MIC ([4]; 48 h) was 0.3 µg/mL. It also gave an MIC (Proteus mirabilis MeF; 24 h) of 0.3 µg/mL, an MIC (Proteus mirabilis MeF; 48 h) of 0.3 µg/mL and an MIC (Proteus vulgaris 2; 24 h) of 0.3 µg/mL. The MIC (Proteus vulgaris 2; 48 h) was 0.3 µg/mL, the MIC ([5]; 24 h) was 0.075 µg/mL and the MIC ([5]; 48 h) was 0.3 µg/mL. For the same compound, the MIC ([6]; 24 h) was 0.75 µg/mL, the MIC ([6]; 48 h) was 0.75 µg/mL and the MIC (Salmonella paratyphi B1; 24 h) was 0.3 µg/mL. The MIC (Salmonella paratyphi B1; 48 h) was 0.75 µg/mL, the MIC (Salmonella paratyphi B2; 24 h) was 0.3 µg/mL and the MIC (Salmonella paratyphi B2; 48 h) was 0.3 µg/mL. It also gave an MIC (Candida albicans 406; 24 h) of over 10 µg/mL, an MIC (Candida albicans 406; 48 h) of over 10 µg/mL and an MIC (Candida albicans 401; 24 h) of over 10 µg/mL. For the same compound, the MIC (Candida albicans 401; 48 h) was over 10 µg/mL, the MIC (Candida albicans 411; 24 h) was over 10 µg/mL and the MIC (Candida albicans 411; 48 h) was over 10 µg/mL. It also gave an MIC (Saccharomyces cerevisiae; 24 h) of over 10 µg/mL and an MIC (Saccharomyces cerevisiae; 48 h) of over 10 µg/mL.
For `CN[C@@H]1[C@@H](O)[C@@H](O[C@@H]2[C@@H](O)[C@H](O[C@H]3OC(C(C)N)=CC[C@H]3N)[C@@H](N)C[C@H]2N)OC[C@]1(C)O` (stereo partly shown) [Verdamicin I], the “assay potency in the gentamicin assay” value [1] was 1000 µg/mg, the dose response curve [1] was “parallel to that of gentamicin” and the “antibacterial activity in vitro” value [7] was “broad spectrum of antibacterial activity”. The “activity against kanamycin resistant bacteria” value [8] was “active against kanamycin resistant bacteria”, the “cross resistance with gentamicin” value (bacteria) was “appears to be cross resistant with gentamicin” and the “in vitro activity against yeast” value (yeast) was “does not exhibit any substantial in vitro activity against yeast”. The “antibacterial activity in vivo” value [9] was “potent antibacterial agent” and the pKa (physchem) was 8.1.
With Gentamicin the PD50 [10] was 2.4 mg/kg, the PD50 (Streptococcus pyogenes C [11]) was 5.0 mg/kg and the PD50 (Escherichia coli 10536) was 1.7 mg/kg. For the same compound, the PD50 [12] was 1.7 mg/kg.
In the case of Gentamicin Sulfate [reference compound], the “Minimum Inhibitory Concentration - MIC” value [13] is reported as 0.1 µg/mL, the “Minimum Inhibitory Concentration - MIC” value (Streptococcus pyogenes C [2]; [14]) is reported as 3.0 µg/mL and the “Minimum Inhibitory Concentration - MIC” value (Streptococcus pyogenes 6; [14]) is reported as 1.0 µg/mL. For the same compound, the “Minimum Inhibitory Concentration - MIC” value (Aerobacter aerogenes 3; [14]) was 0.6 µg/mL, the “Minimum Inhibitory Concentration - MIC” value (Aerobacter aerogenes 4; [14]) was 0.3 µg/mL and the “Minimum Inhibitory Concentration - MIC” value (Escherichia coli Sc; [14]) was 0.75 µg/mL. The “Minimum Inhibitory Concentration - MIC” value (Escherichia coli 5; [14]) was 0.3 µg/mL, the “Minimum Inhibitory Concentration - MIC” value (Escherichia coli 19; [14]) was 0.3 µg/mL and the “Minimum Inhibitory Concentration - MIC” value [3, 15] was 0.3 µg/mL. The “Minimum Inhibitory Concentration - MIC” value [4, 15] was 0.3 µg/mL, the “Minimum Inhibitory Concentration - MIC” value (Proteus mirabilis MeF; [14]) was 0.3 µg/mL and the “Minimum Inhibitory Concentration - MIC” value (Proteus vulgaris 2; [14]) was 0.3 µg/mL. The “Minimum Inhibitory Concentration - MIC” value [5, 14] was 0.3 µg/mL, the “Minimum Inhibitory Concentration - MIC” value [6, 14] was 0.5 µg/mL and the “Minimum Inhibitory Concentration - MIC” value (Salmonella paratyphi B1; [14]) was 1.0 µg/mL. The “Minimum Inhibitory Concentration - MIC” value (Salmonella paratyphi B2; [14]) was 0.5 µg/mL, the “Minimum Inhibitory Concentration - MIC” value (Candida albicans 406; [14]) was over 50 µg/mL and the “Minimum Inhibitory Concentration - MIC” value (Candida albicans 401; [14]) was over 50 µg/mL. The “Minimum Inhibitory Concentration - MIC” value (Candida albicans 411; [14]) was over 50 µg/mL and the “Minimum Inhibitory Concentration - MIC” value (Saccharomyces cerevisiae; [14]) was over 50 µg/mL.
